Source: US4256761A, “Antihypertensive amides” (USV Pharmaceutical Corporation, priority 1979, dated 1981)

Tests used:
[1] = system: angiotensin I-induced hypertensive rats; assay: oral antihypertensive activity in angiotensin I-induced hypertensive rats; assay type: in vivo; conditions: Rattus norvegicus, dose for 50% reduction in angiotensin I-induced hypertension, read-out: I50 (ID50, antihypertensive activity)
[2] = target: T1, angiotensin converting enzyme (Oryctolagus cuniculus, UniProt P12822); assay: angiotensin converting enzyme inhibition (ACEI activity), method of Science 196, 441-4 (1977); assay type: biochemical; conditions: amount required for 50% inhibitive effect, read-out: I50 (ACEI activity)
T1 sequence (P12822 34-1310): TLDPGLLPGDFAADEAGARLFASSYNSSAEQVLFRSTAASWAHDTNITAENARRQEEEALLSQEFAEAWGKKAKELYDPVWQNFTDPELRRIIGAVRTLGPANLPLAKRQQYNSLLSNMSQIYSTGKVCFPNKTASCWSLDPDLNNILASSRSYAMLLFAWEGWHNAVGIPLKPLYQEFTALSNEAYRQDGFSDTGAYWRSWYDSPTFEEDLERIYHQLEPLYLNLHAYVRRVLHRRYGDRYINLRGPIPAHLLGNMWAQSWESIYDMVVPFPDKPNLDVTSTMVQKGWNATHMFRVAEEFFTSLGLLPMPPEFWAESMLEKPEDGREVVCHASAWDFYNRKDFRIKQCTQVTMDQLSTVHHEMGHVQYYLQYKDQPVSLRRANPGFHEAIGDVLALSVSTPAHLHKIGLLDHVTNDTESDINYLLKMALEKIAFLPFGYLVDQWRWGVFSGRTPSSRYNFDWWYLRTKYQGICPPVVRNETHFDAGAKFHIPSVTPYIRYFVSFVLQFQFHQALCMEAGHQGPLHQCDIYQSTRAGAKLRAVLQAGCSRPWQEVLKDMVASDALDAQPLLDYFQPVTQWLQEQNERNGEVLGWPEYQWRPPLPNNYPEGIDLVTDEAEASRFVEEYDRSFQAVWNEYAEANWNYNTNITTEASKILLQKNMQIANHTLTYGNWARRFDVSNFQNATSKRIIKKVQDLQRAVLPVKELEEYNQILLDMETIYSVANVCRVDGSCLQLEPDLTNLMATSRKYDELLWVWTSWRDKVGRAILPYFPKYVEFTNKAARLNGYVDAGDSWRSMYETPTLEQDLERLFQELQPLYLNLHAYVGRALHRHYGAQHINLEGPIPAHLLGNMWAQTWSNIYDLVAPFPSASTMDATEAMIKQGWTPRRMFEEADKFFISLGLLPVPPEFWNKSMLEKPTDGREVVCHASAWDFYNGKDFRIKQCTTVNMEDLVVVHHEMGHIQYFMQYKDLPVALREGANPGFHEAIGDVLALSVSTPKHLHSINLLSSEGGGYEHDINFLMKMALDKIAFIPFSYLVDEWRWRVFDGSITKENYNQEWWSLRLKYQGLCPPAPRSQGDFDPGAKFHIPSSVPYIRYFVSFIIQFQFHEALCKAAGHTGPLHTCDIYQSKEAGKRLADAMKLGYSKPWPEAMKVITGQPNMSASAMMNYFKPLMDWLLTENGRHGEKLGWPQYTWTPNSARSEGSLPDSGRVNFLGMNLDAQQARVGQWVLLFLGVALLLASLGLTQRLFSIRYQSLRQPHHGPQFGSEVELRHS
Description: The I50 value represents the amount in micromols required to give an inhibitive effect of 50% in the tests using the procedure described in the Science article.

| IC50 [2] | SMILES | ED50 [1] |
| --- | --- | --- |
| – | CC(CS)C(=O)N(CC(=O)O)C1Cc2ccccc2C1 (centres unmarked) [2-Indanyl H, N-(3-Mercapto-2-methylpropanoyl)-N-(indan-2-yl)glycine] | 0.16 mg/kg |
| 0.088 µM | CC(=O)SCC(C)C(=O)N(CC(=O)O)C1CCCCCC1 (centres unmarked) [Cycloheptyl CH3 CO, N-(3-Acetylthio-2-methylpropanoyl)-N-cycloheptylglycine] | – |
| – | CC(CS)C(=O)N(CC(=O)O)C1CCCCCC1 (centres unmarked) [Cycloheptyl H, N-(3-Mercapto-2-methylpropanoyl)-N-cycloheptylglycine] | 0.021 mg/kg |
| 0.044 µM | CC(=O)SCC(C)C(=O)N(CC(=O)O)C1CCCC1 (centres unmarked) [Cyclopentyl CH3 CO, N-(3-Acetylthio-2-methylpropanoyl)-N-cyclopentylglycine] | 0.16 mg/kg |
| – | CC(CS)C(=O)N(CC(=O)O)C1CCCC1 (centres unmarked) [Cyclopentyl H, N-(3-Mercapto-2-methylpropanoyl)-N-cyclopentylglycine] | 0.15 mg/kg |
| – | CC(=O)SCC(C)C(=O)N(CC(=O)O)C1CC1 (centres unmarked) [Cyclopropyl CH3 CO, N-(3-Acetylthio-2-methylpropanoyl)-N-(cyclopropyl)glycine] | 0.13 mg/kg |
| 0.027 µM | CC(CS)C(=O)N(CC(=O)O)C1CC1 (centres unmarked) [Cyclopropyl H, N-(3-Mercapto-2-methylpropanoyl)-N-cyclopropylglycine] | 0.14 mg/kg |
| – | CC(CS)C(=O)N(CC(=O)O)C1CCC1 (centres unmarked) [Cylcobutyl H, N-(3-Mercapto-2-methylpropanoyl)-N-cyclobutylglycine] | 0.21 mg/kg |
| 0.095 µM | COCCN(CC(=O)O)C(=O)C(C)CS (centres unmarked) [H3 CO(CH2)2 H] | – |
| 0.055 µM | CSCCCN(CC(=O)O)C(=O)C(C)CS (centres unmarked) [H3 CS(CH2)3 H, N-(3-Mercapto-2-methylpropanoyl)-N-(3-methylthiopropyl)glycine] | – |
| – | CC(=O)SCC(C)C(=O)N(CC(=O)O)c1ccccc1 (centres unmarked) [Phenyl CH3 CO, N-(3-Acetylthio-2-methylpropanoyl)-N-phenylglycine] | 0.23 mg/kg |
| 0.022 µM | CC(=O)SCC(C)C(=O)N(CC(=O)O)[C@@H]1C[C@H]2CC[C@@H]1C2 (stereo partly drawn) [exo-Norbornyl CH3 CO, N-(3-Acetylthio-2-methylpropanoyl)-N-(exo-norbornyl)glycine] | 0.06 mg/kg |
| 0.025 µM | CC(CS)C(=O)N(CC(=O)O)[C@@H]1C[C@H]2CC[C@@H]1C2 (stereo partly drawn) [exo-Norbornyl H, N-(3-Mercapto-2-methylpropanoyl)-N-(exo-norbornyl)glycine] | 0.11 mg/kg |
